For test [1], the system named is HUVECs. As to the kind of experiment: NO production in HUVECs (assay kit). Type of test: cell-based, human. Conditions: control 33.68 ± 0.96 μM. On the procedure:
(§1) HUVECs were cultured in DMEM supplemented with 100 µg/mL streptomycin, 10% FBS (v/v), and 100 U/mL penicillin at 37°C in a humidified 5% CO2 atmosphere for 24 h.
(§2) After treating with ACEi peptides (TRP3, TRP6, TRP9, or TRP12, respectively) for 24 h, NO and ET-1 contents were separately determined by employing human NO and ET-1 assay kit as per manufactures’ protocol ([18]).

For test [2], the system named is HUVECs. As to the kind of experiment: ET-1 secretion in HUVECs (assay kit). It is filed as cell-based, human. Conditions: control 55.37 ± 2.53 pg./mL. The protocol: as §1, §2
Test [3] has as its target T1, ACE (Oryctolagus cuniculus, UniProt P12822).
T1 sequence (P12822 34-1310): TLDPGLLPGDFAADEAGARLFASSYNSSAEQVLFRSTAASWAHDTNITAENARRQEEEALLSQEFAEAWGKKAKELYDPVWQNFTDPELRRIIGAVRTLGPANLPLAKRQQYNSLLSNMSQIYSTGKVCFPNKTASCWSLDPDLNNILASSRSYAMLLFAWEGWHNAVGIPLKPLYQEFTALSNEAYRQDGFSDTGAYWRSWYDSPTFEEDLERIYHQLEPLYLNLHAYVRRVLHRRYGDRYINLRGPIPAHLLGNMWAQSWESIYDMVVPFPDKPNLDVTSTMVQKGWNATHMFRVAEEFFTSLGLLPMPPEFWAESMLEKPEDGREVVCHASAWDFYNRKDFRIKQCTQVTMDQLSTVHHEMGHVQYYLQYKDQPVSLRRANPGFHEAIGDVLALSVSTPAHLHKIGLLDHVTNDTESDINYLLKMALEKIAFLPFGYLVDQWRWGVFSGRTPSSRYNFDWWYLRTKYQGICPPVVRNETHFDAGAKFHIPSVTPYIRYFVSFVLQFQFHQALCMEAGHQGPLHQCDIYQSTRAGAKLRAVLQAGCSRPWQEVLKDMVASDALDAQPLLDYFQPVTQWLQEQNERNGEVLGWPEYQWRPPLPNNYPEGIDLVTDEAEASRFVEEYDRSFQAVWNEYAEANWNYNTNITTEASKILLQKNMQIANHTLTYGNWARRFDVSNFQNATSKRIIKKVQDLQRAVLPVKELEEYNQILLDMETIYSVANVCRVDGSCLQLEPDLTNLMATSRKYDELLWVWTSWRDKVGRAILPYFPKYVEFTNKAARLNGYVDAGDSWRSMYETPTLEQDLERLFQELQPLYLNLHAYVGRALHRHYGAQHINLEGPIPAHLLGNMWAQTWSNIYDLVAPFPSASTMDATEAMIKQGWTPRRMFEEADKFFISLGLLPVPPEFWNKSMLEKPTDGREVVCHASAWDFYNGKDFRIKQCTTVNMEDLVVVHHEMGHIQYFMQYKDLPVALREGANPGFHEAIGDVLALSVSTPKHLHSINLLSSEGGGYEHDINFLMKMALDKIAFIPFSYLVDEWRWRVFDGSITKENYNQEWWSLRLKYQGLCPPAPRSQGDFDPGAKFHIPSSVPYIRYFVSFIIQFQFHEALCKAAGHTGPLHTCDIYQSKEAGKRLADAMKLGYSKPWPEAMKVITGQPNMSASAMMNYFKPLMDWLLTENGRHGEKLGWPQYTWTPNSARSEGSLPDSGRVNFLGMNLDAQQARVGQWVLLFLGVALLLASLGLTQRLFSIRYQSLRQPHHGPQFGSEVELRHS
The settings on record: cited from earlier work; for pIC50: read-out: ACEi IC50. The text has this: Moreover, the C- and N-terminal amino acids are believed to play a crucial function in the activity of ACEi peptides ([21]). Yu et al. ([56]) reported that C-terminus (such as Trp, Tyr, Pro, or Phe) and N-terminus (such as Pro, Phe, Trp, or Met) hydrophobic amino acid residues have positive effects on the ACEi ...

Test [4] deals with T1, ACE. The settings on record: cited from earlier work. From the text: Peptide size and amino acid sequence are two key factors affecting the ACEi ability of BPs ([17], [21]). Peptide size decides the affinity between BPs and ACE because big polypeptides cannot be accommodated in and access the narrow channel of ACE ([21]). For example, VPP and IPP can easily access and bind the Zn^2+ of ACE channel, but ALPMHIR has low binding scores with ACE because it uncomfortably accesses the narrow channel ([19]). In the experiment, TRP3, TRP6, TRP9, and TRP10 are tetrapeptides or pentapeptides, and small size increases their access to the active channel of ACE, and this ha ...

pIC50: −log10 of the molar value.

As for `C[C@H](CS)C(=O)N1CCC[C@H]1C(=O)O` [Cap, captopril, reference compound], the “NO level in HUVECs” value in the test on HUVECs [1] (Cap treatment) was 53.71 ± 2.313 µM. Further, in the test on HUVECs [2] (Cap 1.0 μM), the “ET-1 content in HUVECs” value came to 27.32 ± 1.28 pg/mL. Take `NC[C@H](O)c1ccc(O)c(O)c1` [NE, norepinephrine, reference compound]: the “NO level in HUVECs” value with HUVECs [1] (NE treatment (0.5 μM)) turned out to be 18.59 ± 0.82 µM. For the same compound, the “ET-1 content in HUVECs” value with HUVECs [2] (NE 0.5 μM) was found to be 73.57 ± 3.09 pg/mL. A word on the pIC50: it is the IC50 on a negative log10 scale, so that one unit is a factor of ten. For ACKEP [literature ACEi peptide], on ACE [3], the pIC50 is 3.90. Regarding FRKE [literature ACEi peptide], on ACE [3], the “ACEi IC50” value was 6970 µg/mL. As to IYSP [literature ACEi peptide], on ACE [4], the “affinity with ACE (docking)” value is -34.7 kJ/mol. Turning to KFYG [literature ACEi peptide], the negative-log IC50 (pIC50) on ACE [3] was 4.04.

In the case of LAPPSTRH [literature ACEi peptide], the “ACEi IC50” value at ACE [3] was 1310 µg/mL.

Turning to LSFR [literature ACEi peptide], the “affinity with ACE (docking)” value on ACE [4] was -35.6 kJ/mol. In the case of LVLL [literature ACEi peptide], the “affinity with ACE (docking)” value on ACE [4] was -36 kJ/mol. With MVGSAPGVL [literature ACEi peptide], the “ACEi IC50” value at ACE [3] was 3090 µg/mL. Regarding NFRPQ [literature ACEi peptide], the “ACEi IC50” value at ACE [3] was 4280 µg/mL.

On to SHGEY [literature ACEi peptide], for which, at ACE [4], the “affinity with ACE (docking)” value was -36.4 kJ/mol. Take SPYGF [literature ACEi peptide]: the “affinity with ACE (docking)” value on ACE [4] is -40.6 kJ/mol. As for SWISS [literature ACEi peptide], the “affinity with ACE (docking)” value at ACE [4] is -36 kJ/mol.

Turning to YEGDP [literature ACEi peptide], on ACE [4], the “affinity with ACE (docking)” value is -36.8 kJ/mol. YLRLHF [literature ACEi peptide]: the “ACEi IC50” value at ACE [3] is 1260 µg/mL.

With YVVF [literature ACEi peptide], the “affinity with ACE (docking)” value at ACE [4] was -41 kJ/mol.

The values above are taken from paper PMC10369073, “Production, identification, in silico analysis, and cytoprotection on H2O2-induced HUVECs of novel angiotensin-I-converting enzyme inhibitory peptides from Skipjack tuna roes” (Frontiers in Nutrition, 2023).
